The nature of data set [1]: Plasma protein binding (equilibrium dialysis), human plasma. The following applies: pH 7.4, read-out: Plasma Protein Binding: FREE Fraction human. The data set is classed as in vitro ADME. As for the experimental part:
(§1) Pooled and frozen plasma from selected species were obtained from commercial suppliers […]
(§2) (human […] and mouse […]3-C57; BioreclamationIV, NY, USA). Teflon […]
(§3) equilibrium dialysis plates (96-well, 150 μL, half-cell capacity) and cellulose membranes (12–14 kDa molecular weight cut-off) were purchased from HT-Dialysis (Gales Ferry, Connecticut). Both biological matrix and phosphate buffer pH were adjusted to 7.4 on the day of the experiment. The reference substance was diazepam.
(§4) The determination of unbound compound was performed using a 96-well format equilibrium dialysis device with a molecular weight cut-off membrane of 12 to 14 kDa. […]
(§5) At equilibrium, the unbound drug concentration in the biological matrix compartment of the equilibrium dialysis apparatus is the same as the concentration of the compound in the buffer compartment. Thus, the percent unbound fraction was be calculated by determining the compound concentrations in the buffer and matrix compartments after dialysis as follows: % fraction unbound = 100 × buffer concentration after dialysis/matrix concentration after dialysis. […]
(§6) P-glycoprotein (permeability-glycoprotein (P-gp), also known as multidrug resistance protein 1) is the most studied and best characterized drug transporter. […] The effect of P-gp was measured by expressing the efflux ratio of the unidirectional A > B and B > A Papp values. […]
A general note: In equilibrium dialysis free small molecules cross a membrane that holds back macromolecules.

The test system of data set [2] is neutrophils from CB2R-/- mice. Description: Transwell neutrophil migration assay towards CXCL2, CB2R-/- neutrophils. The data set is classed as cell-based, mouse. The following applies: 10 nM CXCL2. As for the experimental part:
As described previously, mouse neutrophils were isolated from the bone marrow of mice. Mice were euthanized, femur and tibia were dissected and flushed with ice-cold 1× Hanks balanced salt solution (HBSS; supplemented with […], pH7.5, and 0.5 mM EDTA; Invitrogen) through a sterile filter (70 μm). The suspension was centrifuged at 300× g for 12 min at 4 °C. EasySep™ neutrophil enrichment kit ([…] Technologies Inc., Vancouver, BC, Canada) was used to isolate neutrophils according to the manufacturer’s instructions. The isolated neutrophils were then washed once and the pelleted cells were suspended in RPMI (Invitrogen) containing 1% heat-inactivated fetal bovine serum (FBS, Invitrogen) and used immediately for neutrophil migration experiments or processed for adoptive transfer. The murine neutrophil isolation protocol routinely yields cell suspensions that are >95% pure and viable, as determined by cresyl violet and trypan blue exclusion, respectively.
Neutrophil migration assays were performed using a Transwell migration assay. Isolated neutrophils (1 × 10^5 cells/100 μL) from WT or CB2R^-/- mice were incubated with vehicle (0.01% DMSO), or various concentrations of RO8671304 or RO6851228 at 37 °C, 5% CO2 for 30 min. […] The number of migrated neutrophils was then determined using ImageJ. […]

Data set [3] is described as follows: Plasma protein binding (equilibrium dialysis), mouse plasma. The data set is classed as in vitro ADME. The following applies: C57, pH 7.4, read-out: Plasma Protein Binding: FREE Fraction mouse. The procedure:
as §1, §2, §3, §4, §5, §6

For `CC(C)(C)c1nc(N2CC[C@H](O)C2)c2nnn(Cc3nnnn3C3CC3)c2n1` [RO6871304, (3S)-1-{5-tert-butyl-3-[(1-cyclopropyl-1H-tetrazol-5-yl)methyl]-3H-[1,2, 3]triazolo[4,5-d]pyrimidin-7-yl}pyrrolidin-3-ol], the fraction unbound at 5 h, 1000 nM in data set [1] came to 0.13; in data set [3] it was 0.031. Further, the “CXCL2-induced migration of CB2R-/- neutrophils” value in data set [2] is “did not inhibit migration”.

For the origin of these results see PMC6767236, “Selective Cannabinoid 2 Receptor Agonists as Potential Therapeutic Drugs for the Treatment of Endotoxin-Induced Uveitis” (Molecules, 2019).
